Test systems include A498; A549; ACHN; DU-145; HL-60; Hs-578T; IGROV-1; K562; MCF7; Malme-3M; NCI-H226; NCI-H460; NCI/ADR-RES; OVCAR-8; PC-3; SF-268; SK-OV-3; SNB-19; SR; U-251.
Common to all, as to assay: growth of human tumour cells (NCI), 48 h

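Cultured in 96-well plates, cells were exposed to test compound for 48 hours across five concentrations. The concentration for 50% growth inhibition is given as GI50.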 The source made the active and inactive calls. Rule as the data show it: active = GI50 up to about 1.1 µM and inactive = higher.

Turning to `COc1cccc(-c2nc(N)c(C#N)c3c2CCS(=O)(=O)c2ccc(C)cc2-3)c1`, the GI50 with A498 is 30.1 µM (inactive); in the experiment on A549 it was 11.6 µM (inactive); in the experiment with ACHN, > 100 µM (inactive); in the experiment with DU-145 it was 37.6 µM (inactive); in the experiment on HL-60 it was 5.08 µM (inactive); with Hs-578T it was 13.3 µM (inactive). Further, the GI50 was 15.2 µM (inactive) with IGROV-1; 3.21 µM (inactive) in the experiment with K562; 37.9 µM (inactive) in the experiment on MCF7; 18.2 µM (inactive) in the experiment on Malme-3M; > 51.5 µM (inactive) in the experiment on NCI-H226; 10.8 µM (inactive) with NCI-H460. For the same compound, the GI50 in the experiment with NCI/ADR-RES is 15.2 µM (inactive); in the experiment on OVCAR-8 it was 26.1 µM (inactive); with PC-3, 15.8 µM (inactive); with SF-268, 31.6 µM (inactive); in the experiment on SK-OV-3, 46.7 µM (inactive); in the experiment on SNB-19, > 31.3 µM (inactive). Besides, the GI50 with SR is 1.26 µM (inactive); in the experiment on U-251, 36.6 µM (inactive).
In the case of `CN(C)C(=S)NC(=S)Nc1ccc2ccccc2c1`, the GI50 in the experiment with A498 is 12.6 µM (inactive); with A549, 6.73 µM (inactive); in the experiment with ACHN, 18.6 µM (inactive); with DU-145 it was 18.2 µM (inactive); in the experiment with HL-60 it was 5.69 µM (inactive); in the experiment with Hs-578T, 33.1 µM (inactive). For the same compound, the GI50 is 14.4 µM (inactive) in the experiment on IGROV-1; 2.65 µM (inactive) in the experiment with K562; 10.3 µM (inactive) in the experiment with MCF7; 13.8 µM (inactive) in the experiment with Malme-3M; 12.1 µM (inactive) in the experiment on NCI-H226; 3.94 µM (inactive) with NCI-H460. Also, the GI50 in the experiment on NCI/ADR-RES is 13.8 µM (inactive); in the experiment with OVCAR-8 it was 9.64 µM (inactive); with PC-3 it was 6.1 µM (inactive); in the experiment on SF-268 it was 10.3 µM (inactive); in the experiment with SK-OV-3, 24.8 µM (inactive); in the experiment on SNB-19 it was 12.3 µM (inactive). Further, the figures for the GI50 with SR and in the experiment with U-251 were 3.97 µM (inactive) and 11.6 µM (inactive), respectively.
Turning to `CCOC(=O)/C(=C\NC(=S)Nc1ccc(OCC)cc1)C(=O)c1ccccc1`, the GI50 is 20.7 µM (inactive) in the experiment with A498; > 100 µM (inactive) in the experiment with A549; > 100 µM (inactive) in the experiment with ACHN; > 100 µM (inactive) with DU-145; > 100 µM (inactive) in the experiment on HL-60; 57.9 µM (inactive) with Hs-578T. The GI50 in the experiment on IGROV-1, in the experiment on K562, in the experiment with MCF7, with Malme-3M, with NCI-H226 and in the experiment on NCI-H460 was > 100 µM (inactive) throughout. Moreover, the GI50 with NCI/ADR-RES, with OVCAR-8, in the experiment with PC-3, in the experiment on SF-268, in the experiment on SK-OV-3 and in the experiment with SNB-19 was > 100 µM (inactive) in each case. The GI50 in the experiment on SR and in the experiment with U-251 was > 100 µM (inactive) throughout.
On to `CCOC(=O)/C=C(/C(=O)OCC)n1ccc(=O)n(Cc2cnnn2COCCOC(C)=O)c1=O`, for which the GI50 in the experiment with A498 was 24 µM (inactive); in the experiment with A549, 41.1 µM (inactive); in the experiment with ACHN it was 8.73 µM (inactive); in the experiment with DU-145, 20.7 µM (inactive); with HL-60, 0.018 µM (active); with Hs-578T, 21 µM (inactive). Further, the GI50 in the experiment with IGROV-1 is 17.9 µM (inactive); in the experiment on K562 it was 4.05 µM (inactive); in the experiment on MCF7 it was 10.4 µM (inactive); in the experiment on Malme-3M it was 12.5 µM (inactive); in the experiment on NCI-H226, 24.3 µM (inactive); with NCI-H460, > 43 µM (inactive). For the same compound, the GI50 in the experiment with NCI/ADR-RES was 21.9 µM (inactive); in the experiment with OVCAR-8, 16.6 µM (inactive); with PC-3, 17.5 µM (inactive); in the experiment on SF-268, 20 µM (inactive); in the experiment with SK-OV-3 it was > 100 µM (inactive); with SNB-19, > 31.6 µM (inactive). Also, the GI50 in the experiment with SR was 13.4 µM (inactive); in the experiment with U-251 it was 17.9 µM (inactive).

Source of the values: ChEMBL document CHEMBL1201862, “PubChem BioAssay data set” (2004).
